Drawing on ChEMBL document CHEMBL1681728, “An automated, polymer-assisted strategy for the preparation of urea and thiourea derivatives of 15-membered azalides as potential antimalarial chemotherapeutics” (Bioorg Med Chem, 2011), this text covers IC50 for 23 molecules.

The structures appear in SMILES notation.

Holding throughout (format): functional, organism-based
Assay [1] has as its system Plasmodium falciparum. Briefly: Antimalarial activity against chloroquine-,pyrimethamine-resistant Plasmodium falciparum W2 assessed as inhibition of [3H]hypoxanthine incorporation after 96 hrs by microtiter plate scintillation counting.
Assay [2] relates to Plasmodium falciparum. In words: Antimalarial activity against multidrug-resistant Plasmodium falciparum TM91C235 assessed as inhibition of [3H]hypoxanthine incorporation after 96 hrs by microtiter plate scintillation counting.
Assay [3] relates to Plasmodium falciparum. Briefly: Antimalarial activity against chloroquine-sensitive Plasmodium falciparum D6 assessed as inhibition of [3H]hypoxanthine incorporation after 96 hrs by microtiter plate scintillation counting.

For orientation: IC50 means the midpoint of a concentration-inhibition curve. In the case of `CC[C@H]1OC(=O)[C@H](C)[C@@H](O[C@H]2C[C@@](C)(OC)[C@@H](O)[C@H](C)O2)[C@H](C)[C@@H](O[C@@H]2O[C@H](C)C[C@H](N(C)C)[C@H]2O)[C@](C)(O)C[C@@H](C)CN(CCCNC(=O)Nc2cc(C(=O)OC)cc(C(=O)OC)c2)[C@H](C)[C@@H](O)[C@]1(C)O`, the IC50 was 120 nM in assay [1], 411 nM in assay [2] and 648 nM in assay [3].
Regarding `CC[C@H]1OC(=O)[C@H](C)[C@@H](O[C@H]2C[C@@](C)(OC)[C@@H](O)[C@H](C)O2)[C@H](C)[C@@H](O[C@@H]2O[C@H](C)C[C@H](N(C)C)[C@H]2O)[C@](C)(O)C[C@@H](C)CN(CCCNC(=S)Nc2ccc(C#N)cc2)[C@H](C)[C@@H](O)[C@]1(C)O`, the IC50 in assay [1] stood at 50 nM; in assay [2], 78.2 nM; in assay [3], 132 nM.
Taken in the same sequence, the figures for `CCc1ccc(NC(=O)NCCCN2C[C@H](C)C[C@@](C)(O)[C@H](O[C@@H]3O[C@H](C)C[C@H](N(C)C)[C@H]3O)[C@@H](C)[C@H](O[C@H]3C[C@@](C)(OC)[C@@H](O)[C@H](C)O3)[C@@H](C)C(=O)O[C@H](CC)[C@@](C)(O)[C@H](O)[C@H]2C)cc1` were 73.8 nM, 99.3 nM and 226 nM.
On to `CC[C@H]1OC(=O)[C@H](C)[C@@H](O[C@H]2C[C@@](C)(OC)[C@@H](O)[C@H](C)O2)[C@H](C)[C@@H](O[C@@H]2O[C@H](C)C[C@H](N(C)C)[C@H]2O)[C@](C)(O)C[C@@H](C)CN(CCCNC(=S)NCc2ccc3c(c2)OCO3)[C@H](C)[C@@H](O)[C@]1(C)O`, for which the figures for the IC50 in assay [1], in assay [2] and in assay [3] were 137 nM, 216 nM and 319 nM, respectively.
On to `CC[C@H]1OC(=O)[C@H](C)[C@@H](O[C@H]2C[C@@](C)(OC)[C@@H](O)[C@H](C)O2)[C@H](C)[C@@H](O[C@@H]2O[C@H](C)C[C@H](N(C)C)[C@H]2O)[C@](C)(O)C[C@@H](C)CN(CCCNC(=O)NC(C)(C)CC(C)(C)C)[C@H](C)[C@@H](O)[C@]1(C)O`, for which the IC50 in assay [1] came out at 78.4 nM; in assay [2], 183 nM; in assay [3], 269 nM.
For `CC[C@H]1OC(=O)[C@H](C)[C@@H](O[C@H]2C[C@@](C)(OC)[C@@H](O)[C@H](C)O2)[C@H](C)[C@@H](O[C@@H]2O[C@H](C)C[C@H](N(C)C)[C@H]2O)[C@](C)(O)C[C@@H](C)CN(CCCNC(=S)Nc2cccc3nsnc23)[C@H](C)[C@@H](O)[C@]1(C)O` the same measures were 88.2 nM, 101 nM and 176 nM.
With `CC[C@H]1OC(=O)[C@H](C)[C@@H](O[C@H]2C[C@@](C)(OC)[C@@H](O)[C@H](C)O2)[C@H](C)[C@@H](O[C@@H]2O[C@H](C)C[C@H](N(C)C)[C@H]2O)[C@](C)(O)C[C@@H](C)CN(CCCNC(=S)Nc2ccc(N(CC)CC)cc2)[C@H](C)[C@@H](O)[C@]1(C)O`, the IC50 stood at 684 nM in assay [1], 298 nM in assay [2] and 765 nM in assay [3].
For `CC[C@H]1OC(=O)[C@H](C)[C@@H](O[C@H]2C[C@@](C)(OC)[C@@H](O)[C@H](C)O2)[C@H](C)[C@@H](O[C@@H]2O[C@H](C)C[C@H](N(C)C)[C@H]2O)[C@](C)(O)C[C@@H](C)CN(CCCNC(=O)Nc2cc(F)ccc2C)[C@H](C)[C@@H](O)[C@]1(C)O`, the IC50 in assay [1] turned out to be 53.2 nM; in assay [2] it was 117 nM; in assay [3], 396 nM.
For the molecule `CC[C@H]1OC(=O)[C@H](C)[C@@H](O[C@H]2C[C@@](C)(OC)[C@@H](O)[C@H](C)O2)[C@H](C)[C@@H](O[C@@H]2O[C@H](C)C[C@H](N(C)C)[C@H]2O)[C@](C)(O)C[C@@H](C)CN(CCCNC(=O)Nc2ccc(C(C)=O)cc2)[C@H](C)[C@@H](O)[C@]1(C)O`, the figures for the IC50 in assay [1], in assay [2] and in assay [3] were 709 nM, 398 nM and 1730 nM, respectively.
As for `CC[C@H]1OC(=O)[C@H](C)[C@@H](O[C@H]2C[C@@](C)(OC)[C@@H](O)[C@H](C)O2)[C@H](C)[C@@H](O[C@@H]2O[C@H](C)C[C@H](N(C)C)[C@H]2O)[C@](C)(O)C[C@@H](C)CN(CCCNC(=O)Nc2ccccc2-c2ccccc2)[C@H](C)[C@@H](O)[C@]1(C)O`, the IC50 in assay [1] came to 202 nM; in assay [2] it was 137 nM; in assay [3], 254 nM.
On to `CC[C@H]1OC(=O)[C@H](C)[C@@H](O[C@H]2C[C@@](C)(OC)[C@@H](O)[C@H](C)O2)[C@H](C)[C@@H](O[C@@H]2O[C@H](C)C[C@H](N(C)C)[C@H]2O)[C@](C)(O)C[C@@H](C)CN(CCCNC(=O)Nc2cc(C)oc2C(F)(F)F)[C@H](C)[C@@H](O)[C@]1(C)O`, for which the IC50 in assay [1] stood at 310 nM; in assay [2], 320 nM; in assay [3] it was 361 nM.
Take `CC[C@H]1OC(=O)[C@H](C)[C@@H](O[C@H]2C[C@@](C)(OC)[C@@H](O)[C@H](C)O2)[C@H](C)[C@@H](O[C@@H]2O[C@H](C)C[C@H](N(C)C)[C@H]2O)[C@](C)(O)C[C@@H](C)CN(CCCNC(=O)Nc2ccc(OCc3ccccc3)cc2)[C@H](C)[C@@H](O)[C@]1(C)O`: the values for the IC50 in assay [1], in assay [2] and in assay [3] were 175 nM, 146 nM and 299 nM, respectively.
In the case of `CC[C@H]1OC(=O)[C@H](C)[C@@H](O[C@H]2C[C@@](C)(OC)[C@@H](O)[C@H](C)O2)[C@H](C)[C@@H](O[C@@H]2O[C@H](C)C[C@H](N(C)C)[C@H]2O)[C@](C)(O)C[C@@H](C)CN(CCCNC(=S)NCC(C)C)[C@H](C)[C@@H](O)[C@]1(C)O`, the IC50 in assay [1] is 495 nM; in assay [2], 435 nM; in assay [3] it was 689 nM.
For the molecule `CC[C@H]1OC(=O)[C@H](C)[C@@H](O[C@H]2C[C@@](C)(OC)[C@@H](O)[C@H](C)O2)[C@H](C)[C@@H](O[C@@H]2O[C@H](C)C[C@H](N(C)C)[C@H]2O)[C@](C)(O)C[C@@H](C)CN(CCCNC(=S)Nc2sc3c(c2C(=O)OC)CCCC3)[C@H](C)[C@@H](O)[C@]1(C)O`, the IC50 was determined as 229 nM in assay [1], 407 nM in assay [2] and 825 nM in assay [3].
Taken in the same sequence, the figures for `CCCCNC(=O)NCCCN1C[C@H](C)C[C@@](C)(O)[C@H](O[C@@H]2O[C@H](C)C[C@H](N(C)C)[C@H]2O)[C@@H](C)[C@H](O[C@H]2C[C@@](C)(OC)[C@@H](O)[C@H](C)O2)[C@@H](C)C(=O)O[C@H](CC)[C@@](C)(O)[C@H](O)[C@H]1C` were 370 nM, 820 nM and 5800 nM.
As for `CC[C@H]1OC(=O)[C@H](C)[C@@H](O[C@H]2C[C@@](C)(OC)[C@@H](O)[C@H](C)O2)[C@H](C)[C@@H](O[C@@H]2O[C@H](C)C[C@H](N(C)C)[C@H]2O)[C@](C)(O)C[C@@H](C)CN(CCCNC(=S)Nc2cccc(C(F)(F)F)c2)[C@H](C)[C@@H](O)[C@]1(C)O`, the IC50 in assay [1] came out at 30.3 nM; in assay [2], 54 nM; in assay [3], 120 nM.
With `CC[C@H]1OC(=O)[C@H](C)[C@@H](O[C@H]2C[C@@](C)(OC)[C@@H](O)[C@H](C)O2)[C@H](C)[C@@H](O[C@@H]2O[C@H](C)C[C@H](N(C)C)[C@H]2O)[C@](C)(O)C[C@@H](C)CN(CCCNC(=O)Nc2ccc(C#N)cc2)[C@H](C)[C@@H](O)[C@]1(C)O`, the IC50 is 98.3 nM in assay [1], 206 nM in assay [2] and 386 nM in assay [3].
Take `CC[C@H]1OC(=O)[C@H](C)[C@@H](O[C@H]2C[C@@](C)(OC)[C@@H](O)[C@H](C)O2)[C@H](C)[C@@H](O[C@@H]2O[C@H](C)C[C@H](N(C)C)[C@H]2O)[C@](C)(O)C[C@@H](C)CN(CCCNC(=S)Nc2ccc(OC)cc2)[C@H](C)[C@@H](O)[C@]1(C)O`: the IC50 is 77 nM in assay [1], 209 nM in assay [2] and 480 nM in assay [3].
For `CC[C@H]1OC(=O)[C@H](C)[C@@H](O[C@H]2C[C@@](C)(OC)[C@@H](O)[C@H](C)O2)[C@H](C)[C@@H](O[C@@H]2O[C@H](C)C[C@H](N(C)C)[C@H]2O)[C@](C)(O)C[C@@H](C)CN(CCCNC(=S)Nc2cccc(F)c2)[C@H](C)[C@@H](O)[C@]1(C)O`, the IC50 in assay [1] amounted to 200 nM; in assay [2], 116 nM; in assay [3] it was 511 nM.
`CC[C@H]1OC(=O)[C@H](C)[C@@H](O[C@H]2C[C@@](C)(OC)[C@@H](O)[C@H](C)O2)[C@H](C)[C@@H](O[C@@H]2O[C@H](C)C[C@H](N(C)C)[C@H]2O)[C@](C)(O)C[C@@H](C)CN(CCCNC(=S)Nc2ccc([N+](=O)[O-])cc2OC)[C@H](C)[C@@H](O)[C@]1(C)O`: the IC50 in assay [1] stood at 50.1 nM; in assay [2], 69.7 nM; in assay [3], 74.5 nM.
`CC[C@H]1OC(=O)[C@H](C)[C@@H](O[C@H]2C[C@@](C)(OC)[C@@H](O)[C@H](C)O2)[C@H](C)[C@@H](O[C@@H]2O[C@H](C)C[C@H](N(C)C)[C@H]2O)[C@](C)(O)C[C@@H](C)CN(CCCNC(=O)Nc2c(C)noc2-c2ccccc2)[C@H](C)[C@@H](O)[C@]1(C)O`: the IC50 stood at 734 nM in assay [1], 492 nM in assay [2] and 936 nM in assay [3].
As to `CC[C@H]1OC(=O)[C@H](C)[C@@H](O[C@H]2C[C@@](C)(OC)[C@@H](O)[C@H](C)O2)[C@H](C)[C@@H](O[C@@H]2O[C@H](C)C[C@H](N(C)C)[C@H]2O)[C@](C)(O)C[C@@H](C)CN(C)[C@H](C)[C@@H](O)[C@]1(C)O` [AZITHROMYCIN], the IC50 in assay [1] turned out to be 2240 nM; in assay [2], 2060 nM; in assay [3] it was 1020 nM.
Take `CC[C@H]1OC(=O)[C@H](C)[C@@H](O[C@H]2C[C@@](C)(OC)[C@@H](O)[C@H](C)O2)[C@H](C)[C@@H](O[C@@H]2O[C@H](C)C[C@H](N(C)C)[C@H]2O)[C@](C)(O)C[C@@H](C)CN(CCCNC(=S)NCC23CC4CC(CC(C4)C2)C3)[C@H](C)[C@@H](O)[C@]1(C)O`: the IC50 in assay [1] was 210 nM; in assay [2] it was 152 nM; in assay [3], 553 nM.
